Columns and labels:
[1] = molecular target: anthranilic acid synthetase encoded by pTrp 13-2 (Corynebacterium glutamicum, UniProt P06557); experiment: Inhibition by tryptophan of the anthranilic acid synthetase encoded by plasmid pTrp 13-2; type: biochemical
Experimental: (§1) The thus obtained transformants have the plasmid harboring a gene coding for the anthranilic acid synthetase insensitie to tryptophan. The anthranilic acid synthetase encoded by one of the plasmids, pTrp 13-2 was inhibited 50% with 0.25 mM tryptophan, which was 40-fold higher than the concentration of tryptophan (0.006 mM) needed to inhibit 50% the anthranilic acid synthetase encoded by pTrp 9-1.

[2] = molecular target: T1, anthranilic acid synthetase encoded by pTrp 9-1 (Corynebacterium glutamicum, UniProt P06557); experiment: Inhibition by tryptophan of the anthranilic acid synthetase encoded by plasmid pTrp 9-1; type: biochemical, Corynebacterium glutamicum ATCC 13032
T1 construct: made in house; host or cells: Corynebacterium glutamicum LA 105
Experimental: as §1

Sequence of anthranilic acid synthetase encoded by pTrp 13-2 (P06557 whole entry): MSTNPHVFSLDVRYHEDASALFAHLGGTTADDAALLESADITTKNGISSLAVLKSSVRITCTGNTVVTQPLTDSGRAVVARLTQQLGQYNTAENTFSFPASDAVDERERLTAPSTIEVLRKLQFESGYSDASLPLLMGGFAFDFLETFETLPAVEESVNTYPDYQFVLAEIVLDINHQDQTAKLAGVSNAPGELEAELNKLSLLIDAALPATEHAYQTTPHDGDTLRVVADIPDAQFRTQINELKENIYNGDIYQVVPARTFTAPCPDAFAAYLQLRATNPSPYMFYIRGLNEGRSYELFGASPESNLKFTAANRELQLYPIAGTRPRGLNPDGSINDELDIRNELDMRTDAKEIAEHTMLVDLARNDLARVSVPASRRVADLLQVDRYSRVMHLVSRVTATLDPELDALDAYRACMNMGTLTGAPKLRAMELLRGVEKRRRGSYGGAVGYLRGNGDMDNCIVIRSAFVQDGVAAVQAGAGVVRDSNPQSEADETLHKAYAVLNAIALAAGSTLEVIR
Sequence of anthranilic acid synthetase encoded by pTrp 13-2 (P06558 whole entry, further chain): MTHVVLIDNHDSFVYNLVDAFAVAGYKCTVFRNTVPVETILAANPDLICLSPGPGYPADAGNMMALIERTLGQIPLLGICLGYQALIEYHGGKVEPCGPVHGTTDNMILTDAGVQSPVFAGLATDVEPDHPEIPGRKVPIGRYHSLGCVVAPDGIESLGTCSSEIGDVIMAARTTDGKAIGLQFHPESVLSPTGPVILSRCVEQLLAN
T1 sequence (P06557 whole entry): as the sequence (P06557 whole entry) above
T1 sequence (P06558 whole entry, further chain): as the sequence (P06558 whole entry, further chain) above

Question: `N[C@@H](Cc1c[nH]c2ccccc12)C(=O)O` [tryptophan] was tested. Which “fold higher 50% inhibitory tryptophan concentration, pTrp 13-2 enzyme versus pTrp 9-1 enzyme” value ([1]; 0.25 mM versus 0.006 mM) did it give?
Answer: 40 fold

Question: What about the IC50 ([1]; read-out: concentration of tryptophan inhibiting the anthranilic acid synthetase 50%, enzyme encoded by tryptophan-analog resistant plasmid pTrp 13-2) of the same molecule?
Answer: 250 µM

Question: And the IC50 [2]?
Answer: 6 µM

Reference: US4874698A, “Process for producing tryptophan” (Kyowa Hakko Kogyo Co., Ltd., priority 1983, dated 1989)
